In the supplement of paper PMC11061612:

Key:
[1] = tested on: LS-123 (Colorectal Carcinoma); experiment: combination Emax (second highest fraction inhibited in the dose matrix, 72 h); higher = more inhibition; extreme values may be limits of the assay
In short: (§1)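 Bliss excess equals the observed combination effect minus the expected value EA + EB − EA·EB, where EA and EB are the effects of each agent alone. Combination Emax is the second-highest inhibition within the matrix. Inhibition was scaled from CellTiter-Glo 2.0 luminescence, with 0 set by vehicle wells and 1 by blank wells, after 72 hours of two-drug dosing of cells plated in 1536-well plates.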

[2] = tested on: HH (T-Cell Non-Hodgkin's Lymphoma); experiment: as above
In short: as §1

[3] = tested on: KS-1 (Glioblastoma); experiment: as above
In short: as §1

[4] = tested on: LCLC-97TM1 (Non-Small Cell Lung Carcinoma); experiment: as above
In short: as §1

[5] = tested on: OE21 (Esophageal Squamous Cell Carcinoma); experiment: as above
In short: as §1

[6] = tested on: A673 (Ewing's Sarcoma); experiment: Bliss excess, mean over the matrix (fraction); higher = more synergy
In short: as §1

[7] = tested on: SNU-16 (Gastric Carcinoma); experiment: as above
In short: as §1

[8] = tested on: BPH-1 (Non-Cancerous); experiment: as above
In short: as §1

[9] = tested on: NCI-H1568 (Lung Adenocarcinoma); experiment: as above
In short: as §1

[10] = tested on: HeLa (Cervical Carcinoma); experiment: as above
In short: as §1

[11] = tested on: KS-1 (Glioblastoma); experiment: as above
In short: as §1

[12] = tested on: NCI-H2722 (Mesothelioma); experiment: as above
In short: as §1

[13] = tested on: CAL-72 (Osteosarcoma); experiment: as above
In short: as §1

[14] = tested on: Detroit562 (Head and Neck Carcinoma); experiment: as above
In short: as §1

[15] = tested on: BE-13 (T-Lymphoblastic Leukemia); experiment: as above
In short: as §1

[16] = tested on: KYAE-1 (Esophageal Adenocarcinoma); experiment: as above
In short: as §1

[17] = tested on: KMRC-20 (Kidney Carcinoma); experiment: as above
In short: as §1

[18] = tested on: LCLC-97TM1 (Non-Small Cell Lung Carcinoma); experiment: as above
In short: as §1

[19] = tested on: HuH-7 (Hepatocellular Carcinoma); experiment: as above
In short: as §1

[20] = tested on: SW1573 (Lung Adenocarcinoma); experiment: as above
In short: as §1

Compound | combination Emax [1] | combination Emax [2] | combination Emax [3] | combination Emax [4] | combination Emax [5] | Bliss excess [6] | Bliss excess [7] | Bliss excess [8] | Bliss excess [9] | Bliss excess [10] | Bliss excess [11] | Bliss excess [12] | Bliss excess [13] | Bliss excess [14] | Bliss excess [15] | Bliss excess [16] | Bliss excess [17] | Bliss excess [18] | Bliss excess [19] | Bliss excess [20]
CC1(C)CCC(CN2CCN(c3ccc(C(=O)NS(=O)(=O)c4ccc(NCC5CCOCC5)c([N+](=O)[O-])c4)c(Oc4cnc5[nH]ccc5c4)c3)CC2)=C(c2ccc(Cl)cc2)C1 [Venetoclax] + C1CN(CCC1(C(=O)N[C@@H](CCO)C2=CC=C(C=C2)Cl)N)C3=NC=NC4=C3C=CN4 [Capivasertib] (first compound max 1 µM, 7x7, partner max 3 µM) | 0.34 | 0.44 | 0.303 | 0.298 | 0.48 | -0.0551 | -0.0496 | -0.033 | -0.0306 | -0.0669 | -0.0161 | -0.0671 | -0.04 | -0.0191 | -0.0684 | -0.0582 | -0.0172 | -0.033 | -0.0537 | -0.0428
CN(C)CCCOc1ccc(-c2ccc3ncc4c(c3c2)n(C2CCOCC2)c(=O)n4C)cn1 [AZD0156] + CCN(CCO)CCCOc1ccc2c(Nc3cc(CC(=O)Nc4cccc(F)c4)[nH]n3)ncnc2c1 [AZD2811] (first compound max 1 µM, 7x7, partner max 1 µM) | 0.161 | 0.151 | 0.291 | 0.371 | 0.22 | 0.0262 | 0.0244 | 0.0625 | -0.0376 | -0.0136 | 0.0228 | -0.0226 | -0.0213 | 0.0235 | -0.0908 | -0.0154 | -0.0499 | 0.0765 | -0.0381 | -0.0205
COc1cccc(OCCCN)c1-c1cc(Nc2cnc(C#N)cn2)n[nH]1 [Prexasertib] + CCc1c2c(nc3ccc(O)cc13)-c1cc3c(c(=O)n1C2)COC(=O)[C@]3(O)CC [SN-38] (first compound max 1 µM, 7x7, partner max 0.3 µM) | 0.871 | 0.829 | 0.536 | 1 | 0.813 | -0.0105 | 0.0333 | 0.011 | 0.0165 | 0.0837 | -0.0848 | -0.0565 | -0.0158 | 0.055 | 0.0072 | 0.102 | -0.0215 | 0.0863 | 0.122 | -0.0144
CCN(CCO)CCCOc1ccc2c(Nc3cc(CC(=O)Nc4cccc(F)c4)[nH]n3)ncnc2c1 [AZD2811] + C[C@@H]1COCCN1C2=NC(=NC(=C2)C3(CC3)[S@](=N)(=O)C)C4=C5C=CNC5=NC=C4 [AZD6738] (first compound max 1 µM, 7x7, partner max 10 µM) | 0.632 | 0.179 | 0.576 | 0.842 | 0.666 | -0.0587 | -0.0281 | -0.0111 | -0.0514 | -0.0743 | -0.0711 | 0.006 | -0.0863 | -0.0108 | -0.148 | -0.0234 | -0.0667 | 0.0116 | -0.0453 | -0.0394
COc1nnc2ccc(N3CCC(c4ccc(OCCN5CCN(C)C(=O)[C@H]5C)cc4)CC3)nn12 [AZD5153] + CCN(CCO)CCCOc1ccc2c(Nc3cc(CC(=O)Nc4cccc(F)c4)[nH]n3)ncnc2c1 [AZD2811] (first compound max 1 µM, 7x7, partner max 1 µM) | 0.44 | 0.485 | 0.641 | 0.764 | 0.693 | -0.0389 | 0.0728 | -0.0252 | -0.064 | -0.0457 | -0.0317 | -0.0263 | -0.012 | -0.0804 | -0.0637 | -0.0092 | -0.148 | -0.0325 | -0.051 | -0.0609
NC1(C(=O)N[C@@H](CCO)c2ccc(Cl)cc2)CCN(c2ncnc3[nH]ccc23)CC1 [Capivasertib] + CC(=O)c1c(C)c2cnc(Nc3ccc(N4CCNCC4)cn3)nc2n(C2CCCC2)c1=O [Palbociclib] (first compound max 10 µM, 7x7, partner max 10 µM) | 0.364 | 0.426 | 0.5 | 0.583 | 0.714 | -0.018 | 0.0129 | -0.0574 | -0.124 | -0.0661 | -0.0656 | -0.0436 | 0.0236 | 0.0585 | -0.0485 | -0.0168 | -0.0377 | 0.0152 | 0.0124 | -0.0253
CC1(C)CCC(CN2CCN(c3ccc(C(=O)NS(=O)(=O)c4ccc(NCC5CCOCC5)c([N+](=O)[O-])c4)c(Oc4cnc5[nH]ccc5c4)c3)CC2)=C(c2ccc(Cl)cc2)C1 [Venetoclax] + C=CCn1c(=O)c2cnc(Nc3ccc(N4CCN(C)CC4)cc3)nc2n1-c1cccc(C(C)(C)O)n1 [AZD1775] (first compound max 1 µM, partner max 1 µM) | 0.633 | 0.766 | 0.504 | 0.891 | 0.636 | 0.112 | -0.0478 | -0.0548 | -0.0385 | -0.0459 | 0.0134 | -0.0631 | 0.0256 | -0.0478 | 0.0227 | -0.033 | -0.044 | -0.0364 | -0.0247 | -0.0427
